From ChEMBL document CHEMBL3352619, “Design, synthesis and biological evaluation of novel 6,7-disubstituted-4-phenoxyquinoline derivatives bearing 4-oxo-3,4-dihydrophthalazine-1-carboxamide moieties as c-Met kinase inhibitors” (Bioorg Med Chem, 2014)

Columns and labels:
[1] = biological target: Hepatocyte growth factor receptor (Homo sapiens, UniProt P08581); experiment: Inhibition of c-Met (unknown origin) after 30 mins using poly (Glu,Tyr)4:1 substrate
MDA-MB-231 = experiment: cells; conditions: Homo sapiens, MDA-MB-231, 72 h
Description: Cytotoxicity against human MDA-MB-231 cells after 72 hrs by MTT assay

[2] = biological target: Mast/stem cell growth factor receptor Kit (Homo sapiens, UniProt P10721); experiment: Inhibition of c-KIT (unknown origin) after 30 mins using poly (Glu,Tyr)4:1 substrate
HT-29 = experiment: Cytotoxicity against human HT-29 cells after 72 hrs by MTT assay; conditions: HT-29, 72 h
[3] = Cytotoxicity against human MKN45 cells after 72 hrs by MTT assay; conditions: MKN-45, 72 h
[4] = biological target: Epidermal growth factor receptor (Homo sapiens, UniProt P00533); experiment: Inhibition of EGFR (unknown origin) after 30 mins using poly (Glu,Tyr)4:1 substrate
[5] = biological target: Vascular endothelial growth factor receptor 2 (Homo sapiens, UniProt P35968); experiment: Inhibition of VEGFR2 (unknown origin) after 30 mins using poly (Glu,Tyr)4:1 substrate
[6] = biological target: T1, Receptor-type tyrosine-protein kinase FLT3 (Homo sapiens, UniProt P36888); experiment: Inhibition of FLT3 (unknown origin) after 30 mins using poly (Glu,Tyr)4:1 substrate
T1 sequence (P36888 whole entry): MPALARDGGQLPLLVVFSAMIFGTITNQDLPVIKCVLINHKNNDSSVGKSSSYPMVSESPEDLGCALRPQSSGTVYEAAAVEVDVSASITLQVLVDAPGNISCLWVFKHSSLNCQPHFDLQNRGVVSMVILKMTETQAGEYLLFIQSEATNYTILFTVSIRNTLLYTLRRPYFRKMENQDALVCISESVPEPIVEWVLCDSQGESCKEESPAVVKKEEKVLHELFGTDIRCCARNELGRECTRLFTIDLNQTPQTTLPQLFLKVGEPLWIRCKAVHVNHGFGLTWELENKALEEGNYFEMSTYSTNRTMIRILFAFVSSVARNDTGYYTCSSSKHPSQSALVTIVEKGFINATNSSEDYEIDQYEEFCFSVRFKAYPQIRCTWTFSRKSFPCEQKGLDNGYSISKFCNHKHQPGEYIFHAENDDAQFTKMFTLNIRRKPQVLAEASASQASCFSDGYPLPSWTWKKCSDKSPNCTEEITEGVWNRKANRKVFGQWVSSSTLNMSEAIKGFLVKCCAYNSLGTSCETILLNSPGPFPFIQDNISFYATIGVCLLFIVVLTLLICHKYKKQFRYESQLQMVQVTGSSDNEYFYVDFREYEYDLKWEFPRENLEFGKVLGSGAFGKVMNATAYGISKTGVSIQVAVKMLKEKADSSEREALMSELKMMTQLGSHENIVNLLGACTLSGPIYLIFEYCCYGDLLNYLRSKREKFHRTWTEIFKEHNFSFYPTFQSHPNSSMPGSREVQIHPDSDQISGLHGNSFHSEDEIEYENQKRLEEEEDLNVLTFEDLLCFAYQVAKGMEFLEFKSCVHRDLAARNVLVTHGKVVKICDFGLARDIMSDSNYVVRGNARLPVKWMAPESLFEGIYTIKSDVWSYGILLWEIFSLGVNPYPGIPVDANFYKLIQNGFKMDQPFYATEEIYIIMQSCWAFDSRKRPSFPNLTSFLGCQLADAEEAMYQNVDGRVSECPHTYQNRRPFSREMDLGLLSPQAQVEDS

[7] = Cytotoxicity against human H460 cells after 72 hrs by MTT assay; conditions: NCI-H460, 72 h
[8] = biological target: Platelet-derived growth factor receptor alpha (Homo sapiens, UniProt P16234); experiment: Inhibition of PDGFRalpha (unknown origin) after 30 mins using poly (Glu,Tyr)4:1 substrate
Chain of Platelet-derived growth factor receptor alpha (P16234 whole entry): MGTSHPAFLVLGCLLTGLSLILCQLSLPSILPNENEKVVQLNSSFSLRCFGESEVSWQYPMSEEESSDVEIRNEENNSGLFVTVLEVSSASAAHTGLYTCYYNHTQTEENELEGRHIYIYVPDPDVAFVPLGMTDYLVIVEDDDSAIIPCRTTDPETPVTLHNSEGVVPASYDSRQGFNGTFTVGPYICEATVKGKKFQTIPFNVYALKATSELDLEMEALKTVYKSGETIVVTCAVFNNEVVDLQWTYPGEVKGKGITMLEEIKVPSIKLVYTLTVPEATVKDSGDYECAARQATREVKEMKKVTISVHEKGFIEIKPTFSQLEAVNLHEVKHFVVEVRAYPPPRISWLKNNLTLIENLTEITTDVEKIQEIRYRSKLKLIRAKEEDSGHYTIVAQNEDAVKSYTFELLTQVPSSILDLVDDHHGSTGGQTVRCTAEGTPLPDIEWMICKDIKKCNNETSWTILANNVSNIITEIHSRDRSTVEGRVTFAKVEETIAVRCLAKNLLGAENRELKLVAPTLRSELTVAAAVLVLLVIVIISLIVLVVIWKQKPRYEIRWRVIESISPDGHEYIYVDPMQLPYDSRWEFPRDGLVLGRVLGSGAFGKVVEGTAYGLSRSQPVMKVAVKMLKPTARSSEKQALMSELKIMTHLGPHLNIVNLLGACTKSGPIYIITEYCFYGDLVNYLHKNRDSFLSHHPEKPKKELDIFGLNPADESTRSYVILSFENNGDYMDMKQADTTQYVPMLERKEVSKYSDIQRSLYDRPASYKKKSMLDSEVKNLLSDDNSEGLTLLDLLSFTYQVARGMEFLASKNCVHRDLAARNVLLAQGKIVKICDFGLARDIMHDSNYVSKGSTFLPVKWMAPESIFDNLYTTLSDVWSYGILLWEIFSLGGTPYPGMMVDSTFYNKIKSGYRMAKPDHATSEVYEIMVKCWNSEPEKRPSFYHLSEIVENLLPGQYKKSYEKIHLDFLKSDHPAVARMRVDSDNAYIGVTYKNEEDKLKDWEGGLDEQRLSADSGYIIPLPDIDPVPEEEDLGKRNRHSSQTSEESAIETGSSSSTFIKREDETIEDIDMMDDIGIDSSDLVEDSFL

Chain of Vascular endothelial growth factor receptor 2 (P35968 whole entry): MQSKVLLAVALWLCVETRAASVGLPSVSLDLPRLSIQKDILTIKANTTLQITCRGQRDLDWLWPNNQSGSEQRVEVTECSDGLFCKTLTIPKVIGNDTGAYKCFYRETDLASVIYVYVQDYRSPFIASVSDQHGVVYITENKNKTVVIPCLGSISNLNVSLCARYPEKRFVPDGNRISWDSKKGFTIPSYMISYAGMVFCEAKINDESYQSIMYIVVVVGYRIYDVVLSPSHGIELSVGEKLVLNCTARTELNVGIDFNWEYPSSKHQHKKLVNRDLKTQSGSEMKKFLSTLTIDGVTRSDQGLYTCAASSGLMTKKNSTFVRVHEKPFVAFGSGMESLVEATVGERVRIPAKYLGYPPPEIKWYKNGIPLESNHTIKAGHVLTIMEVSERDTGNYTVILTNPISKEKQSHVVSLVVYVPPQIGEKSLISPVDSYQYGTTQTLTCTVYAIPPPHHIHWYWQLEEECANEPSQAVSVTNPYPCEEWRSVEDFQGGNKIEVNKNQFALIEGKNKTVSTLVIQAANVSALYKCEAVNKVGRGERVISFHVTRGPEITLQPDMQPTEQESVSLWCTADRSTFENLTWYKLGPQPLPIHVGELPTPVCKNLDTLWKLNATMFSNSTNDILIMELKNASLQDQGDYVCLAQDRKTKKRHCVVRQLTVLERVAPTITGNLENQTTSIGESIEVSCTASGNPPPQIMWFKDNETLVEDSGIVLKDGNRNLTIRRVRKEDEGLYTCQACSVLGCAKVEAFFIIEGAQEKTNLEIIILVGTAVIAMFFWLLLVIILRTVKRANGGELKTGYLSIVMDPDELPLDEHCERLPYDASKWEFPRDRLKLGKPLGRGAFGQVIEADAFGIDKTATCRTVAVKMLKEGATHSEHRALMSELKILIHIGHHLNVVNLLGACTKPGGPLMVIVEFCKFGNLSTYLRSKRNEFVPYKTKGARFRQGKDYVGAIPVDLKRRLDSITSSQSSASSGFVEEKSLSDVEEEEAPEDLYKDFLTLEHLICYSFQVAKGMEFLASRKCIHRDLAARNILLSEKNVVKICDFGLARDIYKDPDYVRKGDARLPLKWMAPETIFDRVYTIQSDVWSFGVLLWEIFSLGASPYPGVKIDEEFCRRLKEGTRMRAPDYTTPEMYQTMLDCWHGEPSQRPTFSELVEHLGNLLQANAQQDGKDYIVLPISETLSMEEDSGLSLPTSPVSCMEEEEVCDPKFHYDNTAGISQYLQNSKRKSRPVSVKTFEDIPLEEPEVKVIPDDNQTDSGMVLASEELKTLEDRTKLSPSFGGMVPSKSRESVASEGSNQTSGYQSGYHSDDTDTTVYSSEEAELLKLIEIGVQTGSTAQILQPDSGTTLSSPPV
Chain of Epidermal growth factor receptor (P00533 whole entry): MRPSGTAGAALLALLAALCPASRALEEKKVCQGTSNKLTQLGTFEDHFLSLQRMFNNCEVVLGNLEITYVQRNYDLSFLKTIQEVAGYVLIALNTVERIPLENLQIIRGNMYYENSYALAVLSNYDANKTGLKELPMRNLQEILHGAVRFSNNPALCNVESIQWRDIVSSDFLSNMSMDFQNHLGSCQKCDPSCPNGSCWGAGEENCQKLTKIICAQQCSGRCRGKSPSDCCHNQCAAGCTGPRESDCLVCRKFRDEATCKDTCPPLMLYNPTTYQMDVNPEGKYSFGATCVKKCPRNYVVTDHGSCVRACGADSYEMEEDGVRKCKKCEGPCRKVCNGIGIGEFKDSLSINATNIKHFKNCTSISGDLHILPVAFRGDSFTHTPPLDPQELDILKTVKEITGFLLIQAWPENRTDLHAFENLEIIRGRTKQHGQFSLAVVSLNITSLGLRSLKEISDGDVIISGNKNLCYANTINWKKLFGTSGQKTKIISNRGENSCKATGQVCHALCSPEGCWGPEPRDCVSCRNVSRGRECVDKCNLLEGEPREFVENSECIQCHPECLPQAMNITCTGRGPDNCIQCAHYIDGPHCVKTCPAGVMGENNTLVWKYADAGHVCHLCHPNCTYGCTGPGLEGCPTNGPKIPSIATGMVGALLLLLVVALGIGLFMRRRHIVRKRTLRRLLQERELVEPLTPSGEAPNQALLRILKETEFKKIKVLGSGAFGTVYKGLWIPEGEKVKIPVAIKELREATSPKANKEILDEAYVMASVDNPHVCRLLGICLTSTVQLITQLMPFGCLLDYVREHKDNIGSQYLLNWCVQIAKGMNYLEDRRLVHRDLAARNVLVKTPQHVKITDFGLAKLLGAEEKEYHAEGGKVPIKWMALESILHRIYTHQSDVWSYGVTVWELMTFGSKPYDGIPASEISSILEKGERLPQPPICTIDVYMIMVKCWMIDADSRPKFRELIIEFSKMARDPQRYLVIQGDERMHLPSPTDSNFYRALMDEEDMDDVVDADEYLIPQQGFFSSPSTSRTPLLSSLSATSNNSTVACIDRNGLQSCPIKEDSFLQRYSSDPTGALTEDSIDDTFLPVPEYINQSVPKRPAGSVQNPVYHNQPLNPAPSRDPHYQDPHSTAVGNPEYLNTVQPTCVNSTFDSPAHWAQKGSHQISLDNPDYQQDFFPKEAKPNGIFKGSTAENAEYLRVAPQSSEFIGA
Chain of Hepatocyte growth factor receptor (P08581 whole entry): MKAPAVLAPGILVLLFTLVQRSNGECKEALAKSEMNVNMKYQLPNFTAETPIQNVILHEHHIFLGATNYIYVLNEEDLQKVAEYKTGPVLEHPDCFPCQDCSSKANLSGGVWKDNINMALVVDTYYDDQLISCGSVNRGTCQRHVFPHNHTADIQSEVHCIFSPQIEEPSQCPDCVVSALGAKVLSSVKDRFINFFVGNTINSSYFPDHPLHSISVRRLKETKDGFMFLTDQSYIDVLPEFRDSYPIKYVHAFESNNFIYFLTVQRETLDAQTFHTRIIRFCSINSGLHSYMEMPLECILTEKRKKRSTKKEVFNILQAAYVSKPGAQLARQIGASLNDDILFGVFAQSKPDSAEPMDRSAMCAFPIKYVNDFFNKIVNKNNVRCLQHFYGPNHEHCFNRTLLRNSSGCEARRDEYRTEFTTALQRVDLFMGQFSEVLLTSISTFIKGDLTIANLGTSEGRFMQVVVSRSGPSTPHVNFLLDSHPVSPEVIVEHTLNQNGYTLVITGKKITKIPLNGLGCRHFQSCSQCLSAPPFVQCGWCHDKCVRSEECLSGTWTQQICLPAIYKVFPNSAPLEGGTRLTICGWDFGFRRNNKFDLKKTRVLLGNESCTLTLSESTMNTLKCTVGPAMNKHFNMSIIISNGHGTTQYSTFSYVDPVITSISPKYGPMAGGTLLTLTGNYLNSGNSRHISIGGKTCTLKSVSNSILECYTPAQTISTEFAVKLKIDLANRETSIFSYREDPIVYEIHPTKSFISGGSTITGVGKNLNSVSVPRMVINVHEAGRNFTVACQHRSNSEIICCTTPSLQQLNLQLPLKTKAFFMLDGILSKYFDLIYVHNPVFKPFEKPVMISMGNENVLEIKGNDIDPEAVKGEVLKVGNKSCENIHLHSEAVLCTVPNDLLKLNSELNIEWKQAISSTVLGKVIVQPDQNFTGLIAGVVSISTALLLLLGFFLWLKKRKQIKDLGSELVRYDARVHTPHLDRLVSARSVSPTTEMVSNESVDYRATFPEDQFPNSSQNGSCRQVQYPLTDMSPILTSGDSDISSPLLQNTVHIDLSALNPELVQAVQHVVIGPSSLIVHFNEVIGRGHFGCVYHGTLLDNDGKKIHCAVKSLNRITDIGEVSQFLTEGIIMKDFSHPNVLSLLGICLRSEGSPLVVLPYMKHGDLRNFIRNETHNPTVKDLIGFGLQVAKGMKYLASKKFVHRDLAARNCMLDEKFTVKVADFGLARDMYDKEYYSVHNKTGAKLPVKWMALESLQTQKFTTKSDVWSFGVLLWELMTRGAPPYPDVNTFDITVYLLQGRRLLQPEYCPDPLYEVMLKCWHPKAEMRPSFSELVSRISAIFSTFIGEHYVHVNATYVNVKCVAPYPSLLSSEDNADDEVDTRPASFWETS

Row | IC50 [1] [nM] | IC50 (MDA-MB-231) [nM] | IC50 [2] [nM] | IC50 [4] [nM] | IC50 [5] [nM] | IC50 [6] [nM] | IC50 [8] [nM] | SMILES | IC50 (HT-29) [nM] | IC50 [3] [nM] | IC50 [7] [nM]
1 | 1.63 | 430 | 2.17 | > 10000 | 70.4 | 3.49 | 15.7 | COc1cc2c(Oc3ccc(NC(=O)c4nn(-c5ccc(F)cc5)c(=O)c5ccccc45)cc3F)ccnc2cc1OCCCN1CCCC1 | 130 | 71 | 55
2 | – | 3450 | – | – | – | – | – | COc1ccc(-n2nc(C(=O)Nc3ccc(Oc4ccnc5cc(OCCCN6CCCC6)c(OC)cc45)c(F)c3)c3ccccc3c2=O)cc1 | 2360 | 1320 | 1650
3 | – | 1580 | – | – | – | – | – | COc1cc2c(Oc3ccc(NC(=O)c4nn(-c5ccccc5)c(=O)c5ccccc45)cc3F)ccnc2cc1OCCCN1CCN(C)CC1 | 1140 | 620 | 450
4 | – | 2620 | – | – | – | – | – | COc1cc2c(Oc3ccc(NC(=O)c4nn(-c5ccc([N+](=O)[O-])cc5)c(=O)c5ccccc45)cc3F)ccnc2cc1OCCCN1CCCCC1 | 2170 | 1140 | 1300
5 | – | – | – | – | – | – | – | COc1cc2c(Oc3ccc(NC(=O)c4nn(-c5cccc(F)c5)c(=O)c5ccccc45)cc3F)ccnc2cc1OCCCN1CCCC1 | 460 | 160 | –
6 | – | 1160 | – | – | – | – | – | COc1cc2c(Oc3ccc(NC(=O)c4nn(-c5ccc(Br)cc5)c(=O)c5ccccc45)cc3F)ccnc2cc1OCCCN1CCC(C)CC1 | 920 | 330 | 350
7 | – | 3980 | – | – | – | – | – | COc1ccc(-n2nc(C(=O)Nc3ccc(Oc4ccnc5cc(OCCCN6CCN(C)CC6)c(OC)cc45)c(F)c3)c3ccccc3c2=O)cc1 | 3700 | 1320 | 1110
8 | – | 910 | – | – | – | – | – | COc1cc2c(Oc3ccc(NC(=O)c4nn(-c5ccccc5F)c(=O)c5ccccc45)cc3F)ccnc2cc1OCCCN1CCCCC1 | 630 | 350 | 160
9 | – | 2010 | – | – | – | – | – | COc1ccc(-n2nc(C(=O)Nc3ccc(Oc4ccnc5cc(OCCCN6CCCCC6)c(OC)cc45)c(F)c3)c3ccccc3c2=O)cc1 | 1450 | 950 | 840
10 | – | 1680 | – | – | – | – | – | COc1cc2c(Oc3ccc(NC(=O)c4nn(-c5ccccc5Br)c(=O)c5ccccc45)cc3F)ccnc2cc1OCCCN1CCN(C)CC1 | 1190 | 400 | 290
11 | – | 1050 | – | – | – | – | – | COc1cc2c(Oc3ccc(NC(=O)c4nn(-c5ccccc5F)c(=O)c5ccccc45)cc3F)ccnc2cc1OCCCN1CCN(C)CC1 | 480 | 210 | 230
12 | – | 700 | – | – | – | – | – | COc1cc2c(Oc3ccc(NC(=O)c4nn(-c5ccccc5F)c(=O)c5ccccc45)cc3F)ccnc2cc1OCCCN1CCOCC1 | 470 | 150 | 190
13 | – | 670 | – | – | – | – | – | COc1cc2c(Oc3ccc(NC(=O)c4nn(-c5ccccc5F)c(=O)c5ccccc45)cc3F)ccnc2cc1OCCCN1CCC(C)CC1 | 510 | 260 | 200
14 | – | – | – | – | – | – | – | COc1cc2c(Oc3ccc(NC(=O)c4nn(-c5ccccc5F)c(=O)c5ccccc45)cc3F)ccnc2cc1OCCCN1CCCC1 | 400 | 140 | –
15 | – | – | – | – | – | – | – | COc1cc2c(Oc3ccc(NC(=O)c4nn(-c5ccc(F)cc5)c(=O)c5ccccc45)cc3F)ccnc2cc1OCCCN1CCCCC1 | 290 | 180 | –
16 | – | 1020 | – | – | – | – | – | COc1cc2c(Oc3ccc(NC(=O)c4nn(-c5ccccc5Br)c(=O)c5ccccc45)cc3F)ccnc2cc1OCCCN1CCCC1 | 850 | 410 | 320
17 | – | 1230 | – | – | – | – | – | COc1cc2c(Oc3ccc(NC(=O)c4nn(-c5ccccc5)c(=O)c5ccccc45)cc3F)ccnc2cc1OCCCN1CCOCC1 | 1380 | 430 | 580
18 | – | 3480 | – | – | – | – | – | COc1cc2c(Oc3ccc(NC(=O)c4nn(-c5ccc([N+](=O)[O-])cc5)c(=O)c5ccccc45)cc3F)ccnc2cc1OCCCN1CCOCC1 | 2520 | 1940 | 1890

Row | IC50 [1] [nM] | IC50 (MDA-MB-231) [nM] | IC50 [2] [nM] | IC50 [4] [nM] | IC50 [5] [nM] | IC50 [6] [nM] | IC50 [8] [nM] | SMILES | IC50 (HT-29) [nM] | IC50 [3] [nM] | IC50 [7] [nM]
19 | – | 1160 | – | – | – | – | – | COc1cc2c(Oc3ccc(NC(=O)c4nn(-c5ccc(Br)cc5)c(=O)c5ccccc45)cc3F)ccnc2cc1OCCCN1CCCC1 | 670 | 230 | 180
20 | – | 1560 | – | – | – | – | – | COc1cc2c(Oc3ccc(NC(=O)c4nn(-c5ccccc5Br)c(=O)c5ccccc45)cc3F)ccnc2cc1OCCCN1CCOCC1 | 680 | 450 | 370
21 | – | 1370 | – | – | – | – | – | COc1cc2c(Oc3ccc(NC(=O)c4nn(-c5ccc(Br)cc5)c(=O)c5ccccc45)cc3F)ccnc2cc1OCCCN1CCN(C)CC1 | 850 | 350 | 250
22 | – | 1480 | – | – | – | – | – | COc1cc2c(Oc3ccc(NC(=O)c4nn(-c5ccccc5)c(=O)c5ccccc45)cc3F)ccnc2cc1OCCCN1CCC(C)CC1 | 1040 | 580 | 550
23 | – | 960 | – | – | – | – | – | COc1cc2c(Oc3ccc(NC(=O)c4nn(-c5ccc(Br)cc5)c(=O)c5ccccc45)cc3F)ccnc2cc1OCCCN1CCOCC1 | 710 | 340 | 290
24 | – | 4010 | – | – | – | – | – | COc1cc2c(Oc3ccc(NC(=O)c4nn(-c5ccc([N+](=O)[O-])cc5)c(=O)c5ccccc45)cc3F)ccnc2cc1OCCCN1CCC(C)CC1 | 2450 | 1150 | 1340
25 | – | 3980 | – | – | – | – | – | COc1ccc(-n2nc(C(=O)Nc3ccc(Oc4ccnc5cc(OCCCN6CCOCC6)c(OC)cc45)c(F)c3)c3ccccc3c2=O)cc1 | 3360 | 1620 | 1240
26 | – | – | – | – | – | – | – | COc1cc2c(Oc3ccc(NC(=O)c4nn(-c5ccccc5)c(=O)c5ccccc45)cc3F)ccnc2cc1OCCCN1CCCC1 | 980 | 530 | –
27 | – | 670 | – | – | – | – | – | COc1cc2c(Oc3ccc(NC(=O)c4nn(-c5ccc(F)cc5)c(=O)c5ccccc45)cc3F)ccnc2cc1OCCCN1CCOCC1 | 260 | 90 | 100
28 | – | 3490 | – | – | – | – | – | COc1cc2c(Oc3ccc(NC(=O)c4nn(-c5ccc([N+](=O)[O-])cc5)c(=O)c5ccccc45)cc3F)ccnc2cc1OCCCN1CCN(C)CC1 | 2560 | 1320 | 980
29 | – | – | – | – | – | – | – | COc1cc2c(Oc3ccc(NC(=O)c4nn(-c5ccc(F)cc5)c(=O)c5ccccc45)cc3F)ccnc2cc1OCCCN1CCN(C)CC1 | 320 | 150 | –
30 | – | 1240 | – | – | – | – | – | COc1cc2c(Oc3ccc(NC(=O)c4nn(-c5ccccc5Br)c(=O)c5ccccc45)cc3F)ccnc2cc1OCCCN1CCC(C)CC1 | 950 | 510 | 390
31 | – | 1880 | – | – | – | – | – | COc1cc2c(Oc3ccc(NC(=O)c4nn(-c5ccccc5)c(=O)c5ccccc45)cc3F)ccnc2cc1OCCCN1CCCCC1 | 1310 | 590 | 650
32 | – | 860 | – | – | – | – | – | COc1cc2c(Oc3ccc(NC(=O)c4nn(-c5cccc(F)c5)c(=O)c5ccccc45)cc3F)ccnc2cc1OCCCN1CCC(C)CC1 | 500 | 220 | 190
33 | – | 2980 | – | – | – | – | – | COc1cc2c(Oc3ccc(NC(=O)c4nn(-c5ccc([N+](=O)[O-])cc5)c(=O)c5ccccc45)cc3F)ccnc2cc1OCCCN1CCCC1 | 1760 | 1620 | 1240
34 | – | 1130 | – | – | – | – | – | COc1cc2c(Oc3ccc(NC(=O)c4nn(-c5ccc(Br)cc5)c(=O)c5ccccc45)cc3F)ccnc2cc1OCCCN1CCCCC1 | 770 | 500 | 410
35 | – | 660 | – | – | – | – | – | COc1cc2c(Oc3ccc(NC(=O)c4nn(-c5ccc(F)cc5)c(=O)c5ccccc45)cc3F)ccnc2cc1OCCCN1CCC(C)CC1 | 330 | 130 | 110
